Series [1] is described as follows: Cytotoxicity against HLF by MTT assay. As to conditions: human, HLF cells; read-out: TC50 (the source's name). Background: Tetrazolium assays rely on reduction of a dye to a coloured formazan, in cell work by metabolically active cells.
The target in series [2] is Fatty acid synthase (Rattus norvegicus, UniProt P12785). In words: Inhibition of Sprague-Dawley rat liver fatty acid synthase.
Series [3] deals with Fatty acid synthase (Rattus norvegicus) (UniProt P12785). In words: Inhibition of Sprague-Dawley rat liver fatty acid synthase at 60 umol.
Fatty acid synthase (Rattus norvegicus), sequence (P12785 whole entry): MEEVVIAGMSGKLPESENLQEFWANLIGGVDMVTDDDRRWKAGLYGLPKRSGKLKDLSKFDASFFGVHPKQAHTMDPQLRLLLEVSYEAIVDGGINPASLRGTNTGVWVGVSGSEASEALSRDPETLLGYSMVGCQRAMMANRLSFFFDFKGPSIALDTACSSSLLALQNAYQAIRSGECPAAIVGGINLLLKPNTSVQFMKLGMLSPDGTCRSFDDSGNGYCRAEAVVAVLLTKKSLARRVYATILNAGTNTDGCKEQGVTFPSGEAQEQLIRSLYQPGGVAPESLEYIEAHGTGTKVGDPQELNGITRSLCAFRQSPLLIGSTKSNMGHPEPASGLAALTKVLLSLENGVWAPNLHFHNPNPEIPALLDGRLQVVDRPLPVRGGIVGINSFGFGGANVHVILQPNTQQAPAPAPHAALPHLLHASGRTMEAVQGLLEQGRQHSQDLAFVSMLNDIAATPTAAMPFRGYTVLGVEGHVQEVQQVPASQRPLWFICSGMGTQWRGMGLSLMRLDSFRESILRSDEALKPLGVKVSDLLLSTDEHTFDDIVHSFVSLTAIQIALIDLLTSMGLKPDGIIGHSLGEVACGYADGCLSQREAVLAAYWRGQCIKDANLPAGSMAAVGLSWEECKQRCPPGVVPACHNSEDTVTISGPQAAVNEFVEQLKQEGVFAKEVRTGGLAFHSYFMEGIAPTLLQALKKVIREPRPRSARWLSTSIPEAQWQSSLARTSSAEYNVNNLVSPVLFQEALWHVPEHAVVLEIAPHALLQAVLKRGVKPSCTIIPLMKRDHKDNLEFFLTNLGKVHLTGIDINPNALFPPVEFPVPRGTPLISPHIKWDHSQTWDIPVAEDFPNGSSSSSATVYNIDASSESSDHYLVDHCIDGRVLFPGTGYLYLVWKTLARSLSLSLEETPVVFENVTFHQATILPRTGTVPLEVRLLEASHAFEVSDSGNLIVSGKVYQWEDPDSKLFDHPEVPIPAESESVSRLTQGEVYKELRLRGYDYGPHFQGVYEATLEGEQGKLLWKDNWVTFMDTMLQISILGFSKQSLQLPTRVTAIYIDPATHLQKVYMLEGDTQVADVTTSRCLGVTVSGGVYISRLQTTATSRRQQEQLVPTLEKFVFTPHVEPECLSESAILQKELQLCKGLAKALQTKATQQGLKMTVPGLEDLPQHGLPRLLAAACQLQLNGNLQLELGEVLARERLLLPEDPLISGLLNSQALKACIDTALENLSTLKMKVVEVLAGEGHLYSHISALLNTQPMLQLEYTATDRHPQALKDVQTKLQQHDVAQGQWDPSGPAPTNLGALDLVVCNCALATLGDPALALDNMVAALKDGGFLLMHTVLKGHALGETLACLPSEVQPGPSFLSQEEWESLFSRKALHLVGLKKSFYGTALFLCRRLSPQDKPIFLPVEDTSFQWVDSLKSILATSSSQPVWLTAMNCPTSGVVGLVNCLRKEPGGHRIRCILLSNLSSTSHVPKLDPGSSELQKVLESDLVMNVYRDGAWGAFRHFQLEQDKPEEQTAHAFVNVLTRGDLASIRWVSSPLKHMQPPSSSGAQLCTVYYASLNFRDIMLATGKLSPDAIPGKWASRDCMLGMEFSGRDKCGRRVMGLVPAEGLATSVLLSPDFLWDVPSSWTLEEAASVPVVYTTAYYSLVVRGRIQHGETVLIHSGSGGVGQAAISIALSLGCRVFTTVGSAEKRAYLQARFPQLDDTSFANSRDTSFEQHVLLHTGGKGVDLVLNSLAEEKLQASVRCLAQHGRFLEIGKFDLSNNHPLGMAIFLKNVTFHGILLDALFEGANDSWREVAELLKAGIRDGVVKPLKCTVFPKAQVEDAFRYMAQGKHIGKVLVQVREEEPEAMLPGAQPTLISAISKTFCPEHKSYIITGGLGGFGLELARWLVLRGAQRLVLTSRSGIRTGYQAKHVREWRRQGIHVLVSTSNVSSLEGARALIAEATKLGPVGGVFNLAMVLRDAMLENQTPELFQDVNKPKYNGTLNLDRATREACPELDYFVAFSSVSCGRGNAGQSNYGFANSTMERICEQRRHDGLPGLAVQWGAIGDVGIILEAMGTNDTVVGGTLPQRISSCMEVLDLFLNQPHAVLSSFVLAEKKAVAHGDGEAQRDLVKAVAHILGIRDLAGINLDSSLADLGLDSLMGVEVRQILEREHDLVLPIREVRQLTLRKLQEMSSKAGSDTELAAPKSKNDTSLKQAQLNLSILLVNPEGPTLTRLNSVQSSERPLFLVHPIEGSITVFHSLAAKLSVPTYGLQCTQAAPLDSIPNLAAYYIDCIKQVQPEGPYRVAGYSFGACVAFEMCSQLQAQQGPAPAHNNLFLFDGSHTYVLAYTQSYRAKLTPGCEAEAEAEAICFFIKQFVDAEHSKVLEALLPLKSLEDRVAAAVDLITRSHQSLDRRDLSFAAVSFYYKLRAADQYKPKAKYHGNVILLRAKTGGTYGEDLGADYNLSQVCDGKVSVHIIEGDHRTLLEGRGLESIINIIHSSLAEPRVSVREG
The test system of series [4] is fatty acid synthase. Put plainly: Therapeutic index, ratio of TC50 for HLF to IC50 for Sprague-Dawley rat liver fatty acid synthase. As to conditions: human (HLF cells), HLF cells versus rat liver fatty acid synthase.

From ChEMBL document CHEMBL1143262, “1-Oxo-3-substitute-isothiochroman-4-carboxylic acid compounds: synthesis and biological activities of FAS inhibition” (Bioorg Med Chem Lett, 2009) come the findings set out here.

Each structure is given as a SMILES string.

Fatty acid synthase, sequence (P12785 whole entry): as above

For the compound `CCCCCC[C@H]1SC(=O)c2ccccc2[C@@H]1C(=O)O` (relative stereo), in series [1], the CC50 was > 200 µM. Moreover, the IC50 (as a rule, the concentration at which inhibition is half-maximal) on Fatty acid synthase [2] was 36.7 µM. The inhibition – broadly, the share of the control response that was lost under treatment – in series [3] turned out to be 40.4%.
Take `CCCCCCCCCC[C@H]1SC(=O)c2ccccc2[C@@H]1C(=O)O` (relative stereo): the CC50 in series [1] stood at 12 µM. In addition, in the series with fatty acid synthase [4], the selectivity ratio is 2.92. At Fatty acid synthase [2], this compound displayed an IC50 of 4.11 µM. In addition, the inhibition in series [3] is 90.2%.
For `CCCCCCC[C@H]1SC(=O)c2ccccc2[C@@H]1C(=O)O` (relative stereo), the CC50 in series [1] was > 200 µM. In addition, the IC50 against Fatty acid synthase [2] was 26.9 µM. The compound also displayed an inhibition in series [3] of 43.1%.
Regarding `CCCCCCCC[C@H]1SC(=O)c2ccccc2[C@@H]1C(=O)O` (relative stereo), in series [1], the CC50 turned out to be 84.2 µM. Besides, the selectivity ratio in the series with fatty acid synthase [4] is 6.83. Also, on Fatty acid synthase [2], the IC50 was 12.3 µM. Besides, the inhibition in series [3] was 50.9%.
The corresponding values for `CCCCCCCCCCC[C@H]1SC(=O)c2ccccc2[C@@H]1C(=O)O` (relative stereo) are 9.67 µM, 2.67, 3.62 µM and 95.7%.
Consider `C=C1C(=O)O[C@H](CCCCCCCC)[C@H]1C(=O)O` (relative stereo), for which the CC50 in series [1] was found to be 87.1 µM. In the series on fatty acid synthase [4], the selectivity ratio is 5.61. On Fatty acid synthase [2], this compound showed an IC50 of 15.5 µM.
On to `CCCCCCCCCC1SC(=O)c2ccccc2[C@@H]1C(=O)O` (stereo not given in full), for which, in series [1], the CC50 was determined as 88.6 µM. The selectivity ratio with fatty acid synthase [4] came out at 10.7. On Fatty acid synthase [2], the IC50 is 8.29 µM. In series [3], this compound came in with an inhibition of 77.5%.
